According to patent publication US20120115869A1, “TETRAZOLE DERIVATIVES” (MERCK SERONO S.A., priority 2009, published 2012):
pIC50: −log10 of the molar value.

Tests used:
[1] = system: eosinophils (PGD2-induced cell shape change); experiment: PGD2-induced eosinophil cell shape assay in human whole blood; format: cell-based; details: 10 nM PGD2 final
Procedure: The Compounds of Formula (I) were diluted in dimethylsulphoxide so that the total volume of dimethylsulfoxide was kept constant at 2% dimethylsulphoxide (Me2SO). Serial dilutions of 200 μM to 0.09 μM were prepared. Samples of 90 μl of human blood from healthy volunteers (Centre de Transfusion Sanguine de Genéve) were pre-incubated in polypropylene Falcon tubes (BD 352063) for 20 minutes in a water bath at 37° C. with 10 μl of diluted compounds. For CRTH2 activation, 100 μl PGD2 (Cayman 12010) at 20 nM was added (10 nM final) to each tube and cells were maintained at 37° C. For negative control cells were treated with PBS. After 10 minutes, cell activation was stopped with 120 μl Formaldehyde 10% (4% final, Fluka 41650) and cells were rested for 10 minutes at room temperature. Fixed cells were transferred into polypropylene tubes and then treated for 1 hour in a water bath at 37° C. with 2 ml of Triton-Surfact-Amps X-100 (Pierce 28314) at 0.166% (0.13% Triton final). After several washes with PBS (red cells lysed progressively during washes, two washes are necessary), cells were analyzed by flow cytometry on a FACSCalibur. In one embodiment, the compounds of Formula (I) of the present invention are capable of blocking the cell shape change of eosinophils induced by PGD2 in Whole Blood.

CRTH2 (DP2) = target: T1, CRTH2 (DP2) (Homo sapiens, UniProt Q9Y5Y4); experiment: Radioligand binding Scintillation Proximity Assay ([3H]PGD2, hCRTH2-CHO cell membranes); details: 1.5 nM [3H]PGD2, hCRTH2-CHO cell membranes, SPA
T1 construct: host or cells: CHO cells
T1 sequence (Q9Y5Y4 1-395): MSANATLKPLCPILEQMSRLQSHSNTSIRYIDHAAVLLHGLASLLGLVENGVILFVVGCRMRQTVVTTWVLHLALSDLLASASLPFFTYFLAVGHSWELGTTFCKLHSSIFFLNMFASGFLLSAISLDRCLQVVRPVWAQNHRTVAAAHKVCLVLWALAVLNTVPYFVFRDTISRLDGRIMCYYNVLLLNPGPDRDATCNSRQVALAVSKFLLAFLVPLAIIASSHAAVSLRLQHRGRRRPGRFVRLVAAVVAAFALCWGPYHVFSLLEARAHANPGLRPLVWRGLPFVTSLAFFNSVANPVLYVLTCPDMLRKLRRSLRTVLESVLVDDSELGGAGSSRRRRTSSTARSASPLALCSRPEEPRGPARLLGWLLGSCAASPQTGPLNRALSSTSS
Outline: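 Membranes from CHO cells stably expressing human CRTH2, made by nitrogen cavitation and differential centrifugation. Compounds competed with [3H]PGD2 at 1% DMSO for 90 min with agitation at room temperature. Non-specific binding taken with 10 μM PGD2.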

[2] = In vivo pharmacokinetic evaluation in mouse; details: mice; for clearance / AUC / bioavailability: female, C57BL/6, mouse, plasma; for clearance: iv
Procedure: In order to study the pharmacokinetic (PK) profile of test compounds in vivo, Sprague Dawley male rats or C57BL/6 female mice were dosed intravenously or after oral gavage. For both species, test compounds were dosed in solution at 1 mg/kg for i.v. route (10% ethanol, 10% N,N-dimethylacetamide, 30% propylene glycol, 50% water, v/v) and in suspension at 5 mg/kg (0.5% carboxymethylcellulose suspension, containing 0.25% Tween 20 in water) for oral gavage. PK profile in rat was obtained from 3 animals per dosing route and mouse PK profile was determined from 3 animals for each time points. The volume of administration was 2 mL/kg for i.v. dosing in both species and either 5 mL/kg (rat) or 10 mL/kg (mouse) for oral gavage. Blood samples (100 μL/time point) were collected at 0.083 (5 min), 0.25, 0.5, 1, 4, 7 and 24 hours post-dose for i.v. dosing, and at 0.5, 1, 4, 7 and 24 h for oral dosing, into heparin-Li+ containing tubes. For rats, all blood samples were collected trough a catheter in the carotid artery (placed in the artery the day before the experiment), under light isoflurane anesthesia, and stored on ice until centrifugation and plasma isolation. For mouse, blood samples were collected from intracardiac puncture at sacrifice at each time point and processed as described above for the rat. Plasma samples were stored frozen until analysis (−20° C. to −70° C.). For bioanalysis, samples were processed by protein precipitation (acetonitrile, formic acid 0.1%, addition of 3 volumes) after addition of one internal standard and analysed using a sensitive and selective LC/MS/MS method. An aliquot of the resulting supernatant was subject to LC/MS/MS analysis using a reverse phase column (Waters Xterra, C8, (3.5 μm particle size, 2.1×50 mm) and a short gradient (1 min) from (Solvent A) 85% water, 15% acetonitrile and 0.1% formic acid to (Solvent B) 90% acetonitrile, 10% water and 0.1% formic acid followed by isocratic conditions of Solvent B for 3.5 min at 0.4 mL/min. Column effluent was monitored using a Sciex API 4000 triple quadrupole mass spectrometer with a Turbo V electrospray ion source. Unknown concentrations of test compounds were determined using a calibration curve ranging from 1 to 3000 ng/mL.

CRTH2 [3] = target: T2, CRTH2 (Homo sapiens, UniProt Q9Y5Y4); experiment: [35S]GTPγS binding assay on CHO-CRTH2 cell membranes; format: biochemical; details: without addition of PGD2; 100% of Emax being the activity measured by the addition of 1 μM of PGD2
T2 construct: expressed in transfected cells; host or cells: CHO cells
T2 sequence (Q9Y5Y4 1-395): T1 sequence (Q9Y5Y4 1-395)
Procedure: Adherent CHO cells expressing hCRTH2 (Euroscreen, Belgium) were cultured in 225 cm^2 cell culture flasks (Corning, USA) in 30 ml of medium. After two rinses of phosphate buffered saline (PBS), cells were harvested in 10 ml of PBS containing 1 mM EDTA, centrifuged at 500×g for 5 min at 4° C. and frozen at −80° C. The pellet was re-suspended in 50 mM Tris-HCl, pH 7.4, 2 mM EDTA, 250 mM Sucrose, containing protease inhibitor cocktail tablets, (Complete EDTA-free, Roche, Germany) and incubated 30 min at 4° C. Cells were disrupted by nitrogen cavitation (Parr Instruments, USA) at 4° C. (800 p.s.i. for 30 min), and centrifuged at 500×g for 10 min at 4° C. Pellet containing nuclei and cellular debris was discarded and supernatant was centrifuged 60 min at 4° C. at 45000×g. Membrane pellet was re-suspended in storage buffer (10 mM HEPES/KOH pH 7.4, 1 mM EDTA, 250 mM sucrose, protease inhibitor cocktail tablets) using Dounce homogenization and frozen in liquid nitrogen, and stored at 80° C.
The [^35S]GTPγS assay measures the increase in guanine nucleotide exchange at G-proteins in cell membranes, resulting from agonist (PGD2) binding to CRTH2. […] Briefly, Compounds of Formula (I) are incubated in 96-well scintillating white polystyrene plates (Perkin Elmer, USA) in a final volume of 200 μl containing 20 mM HEPES/KOH pH 7.4, 3 mM MgCl2, 10 μg/ml Saponin, 5 μM GDP, 75 mM NaCl and 2% of dimethylsulphoxide (DMSO). […] After 60 min incubation at 30° C., reaction is stopped by centrifugation at 700×g, at 4° C. for 10 minutes and supernatant is removed. […] For IC50 determination, increasing concentrations of compounds are incubated in presence of a fixed concentration of PGD2 (EC80). For EC50 measurements, compounds are incubated without addition of PGD2. Basal [^35S]GTPγS activity is determined without addition of any ligands or compounds. 100% [^35S]GTPγS activity is measured by the addition of 1 μM of PGD2.

CRTH2 [4] = target: T2, CRTH2; experiment: Cellular Dielectric Spectroscopy in CHO-CRTH2 cells; format: cell-based; details: fixed concentration of PGD2 (EC80), read-out: IC50(μM) (CDS, antagonist)
Procedure: Cellular Dielectric Spectroscopy (CDS) is a label-free technology based on the measurement of complex impedance changes (delta Z or dZ). Impedance (Z) is related to the ratio of voltage to current as described by Ohm's law (Z=V/I). In order to measure the changes in impedance that occur in response to receptor stimulation, mammalian cells are seeded onto a custom 96-well microtiter plate that contains electrodes at the bottom of each well Key contributors to the impedance measurements are changes in cell-substrate adherence, changes in cell shape and volume, and changes in cell-cell interactions. These factors individually or collectively affect the flow of current, influencing the magnitude and characteristics of the signal measured. G-protein coupled receptors ligand-induced activity can be measured using this technology and specific G protein coupling can be identified. Activities of reference agonist and antagonist molecules of CRTH2 have been measured using this assay and similar results were obtained compared to different functional assays.
CHO—CRTH2 cells are cultured in HAM's F12 (Lonza, Switzerland) supplemented with 10% foetal calf serum (PAA, Australia) and 400 μg/ml Geneticin. 100000 cells/well are seeded in standard 96 W Microplates (MDS Analytical Technologies) and incubated at 37° C. in 5% CO2 for 24 hours. Cells are washed twice with 135 μl of cell key buffer (Hank's Balanced Salt Solution 1× (HBSS) (Invitrogen) supplemented with 10 mM HEPES pH 7.4 in presence of 1% DMSO). […] Results are expressed as the amplitude between the highest and the lowest signal produced (max-min). Basal and maximum activities are measured, respectively in absence or presence of PGD2 (EC80).

Compound	IC50 [1]	pIC50 (CRTH2 (DP2))	Emax (CRTH2 [3])	also measured
CCC(=O)N(Cc1ccc(OC(F)(F)F)cc1)c1cc(Cl)cc(-c2nnn[nH]2)c1 [Example 57, N-[3-chloro-5-(1H-tetrazol-5-yl)phenyl]-N-[4-(trifluoromethoxy)benzyl]propanamide]	0.233 µM	7.82	–	melting point: 144 °C
CCC(=O)N(Cc1ccc(C(F)(F)F)cc1)c1cc(F)cc(-c2nnn[nH]2)c1 [Example 58, N-[3-fluoro-5-(1H-tetrazol-5-yl)phenyl]-N-[4-(trifluoromethyl)benzyl]propanamide]	0.102 µM	8.15	-8.1%	Clearance iv (1 mg/Kg) ([2]; i.v. 1 mg/Kg): 5 mL/min/kg; AUC po (5 mg/Kg) ([2]; oral gavage 5 mg/Kg): 11212 ng·h/mL; Oral bioavailability ([2]; po 5 mg/Kg vs iv 1 mg/Kg): 76%
CCCCC(=O)N(Cc1cccc(OC)c1)c1cccc(-c2nnn[nH]2)c1 [Example 13, N-(3-methoxybenzyl)-N-[3-(1H-tetrazol-5-yl)phenyl]pentanamide]	0.914 µM	7.28	–	–
CCC(=O)N(Cc1ccc(OC(F)(F)F)c(Cl)c1)c1cc(F)cc(-c2nnn[nH]2)c1 [Example 56, N-[3-chloro-4-(trifluoromethoxy)benzyl]-N-[3-fluoro-5-(1H-tetrazol-5-yl)phenyl]propanamide]	0.082 µM	7.62	-13%	clearance ([2]; i.v. 1 mg/Kg): 15 mL/min/kg; AUC ([2]; oral gavage 5 mg/Kg): 1910 ng·h/mL; bioavailability ([2]; po 5 mg/Kg vs iv 1 mg/Kg): 36%
CCCCC(=O)N(Cc1ccc(OC(F)(F)F)cc1)c1cc(Cl)cc(-c2nnn[nH]2)c1 [Example 40, N-[3-chloro-5-(1H-tetrazol-5-yl)phenyl]-N-[4-(trifluoromethoxy)benzyl]pentanamide]	–	7.60	-9.9%	melting point: 177 to 180 °C
C#Cc1cccc(CN(C(=O)CCCC)c2cc(-c3nnn[nH]3)ccc2F)c1 [Example 1, N-(3-ethynylbenzyl)-N-[2-fluoro-5-(1H-tetrazol-5-yl)phenyl]pentanamide]	–	7.92	–	clearance ([2]; i.v. 1 mg/Kg): 1.67 mL/min/kg; AUC ([2]; oral gavage 5 mg/Kg): 12200 ng·h/mL; bioavailability ([2]; po 5 mg/Kg vs iv 1 mg/Kg): 33%; IC50 (CRTH2 [4]): 0.096 µM
CCCCC(=O)N(Cc1ccc2c(c1)OCCO2)c1cc(F)cc(-c2nnn[nH]2)c1 [Example 11, N-(2,3-dihydro-1,4-benzodioxin-6-ylmethyl)-N-[3-fluoro-5-(1H-tetrazol-5-yl)phenyl]pentanamide]	0.039 µM	8.64	-14.9%	–
CCC(=O)N(Cc1ccc2c(c1)OCCO2)c1cc(-c2nnn[nH]2)ccc1F [Example 9, N-(2,3-dihydro-1,4-benzodioxin-6-ylmethyl)-N-[2-fluoro-5-(1H-tetrazol-5-yl)phenyl]propanamide]	1.17 µM	7.82	–	–
CCCCC(=O)N(Cc1ccc2c(c1)OCCO2)c1cccc(-c2nnn[nH]2)c1 [Example 5, N-(2,3-dihydro-1,4-benzodioxin-6-ylmethyl)-N-[3-(1H-tetrazol-5-yl)phenyl]pentanamide]	0.536 µM	8.06	–	IC50 (CRTH2 [4]): 0.076 µM
CCCCC(=O)N(Cc1ccc(OC)cc1)c1cc(Cl)cc(-c2nnn[nH]2)c1 [Example 46, N-[3-chloro-5-(1H-tetrazol-5-yl)phenyl]-N-(4-methoxybenzyl)pentanamide]	0.245 µM	8.38	-9.5%	–
